According to ChEMBL document CHEMBL1142318, “Azetidine based transition state analogue inhibitors of N-ribosyl hydrolases and phosphorylases” (J Med Chem, 2008):

Experiments:
[1] = biological target: T1, Purine nucleoside phosphorylase (Plasmodium falciparum, UniProt Q8T9Z7); experiment: Inhibition of Plasmodium falciparum PNP
T1 sequence (Q8T9Z7 whole entry): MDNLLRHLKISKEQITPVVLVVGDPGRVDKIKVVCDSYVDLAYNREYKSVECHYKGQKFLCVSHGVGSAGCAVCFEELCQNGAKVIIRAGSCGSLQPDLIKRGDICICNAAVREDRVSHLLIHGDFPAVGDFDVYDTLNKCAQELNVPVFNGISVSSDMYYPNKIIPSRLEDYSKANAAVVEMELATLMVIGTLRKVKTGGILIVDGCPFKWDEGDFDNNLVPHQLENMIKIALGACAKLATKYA

[2] = biological target: T2, 5'-methylthioadenosine/S-adenosylhomocysteine nucleosidase (Streptococcus pneumoniae serotype 4 (strain ATCC BAA-334 / TIGR4), UniProt A0A0H2UPP7); experiment: Inhibition of Streptococcus pneumoniae MTAN
T2 sequence (A0A0H2UPP7 whole entry): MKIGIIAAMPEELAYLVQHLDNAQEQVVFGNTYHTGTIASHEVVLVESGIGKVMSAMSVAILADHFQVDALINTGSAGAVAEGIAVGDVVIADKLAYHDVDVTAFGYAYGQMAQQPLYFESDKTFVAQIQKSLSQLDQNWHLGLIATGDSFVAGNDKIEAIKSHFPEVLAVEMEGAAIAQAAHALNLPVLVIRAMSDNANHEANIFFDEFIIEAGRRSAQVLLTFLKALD

[3] = biological target: 5'-methylthioadenosine/S-adenosylhomocysteine nucleosidase (Escherichia coli O157:H7, UniProt P0AF14)
[4] = biological target: T3, S-methyl-5'-thioadenosine phosphorylase (Homo sapiens, UniProt Q13126); experiment: Inhibition of human MTAP
T3 sequence (Q13126 whole entry): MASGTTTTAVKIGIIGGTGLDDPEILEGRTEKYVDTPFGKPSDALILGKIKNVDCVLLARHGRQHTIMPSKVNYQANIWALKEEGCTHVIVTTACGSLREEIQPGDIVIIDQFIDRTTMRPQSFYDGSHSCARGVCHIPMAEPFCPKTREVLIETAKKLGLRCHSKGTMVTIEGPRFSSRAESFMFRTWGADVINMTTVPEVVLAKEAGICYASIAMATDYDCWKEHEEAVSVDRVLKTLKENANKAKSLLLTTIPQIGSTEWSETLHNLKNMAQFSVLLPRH

[5] = biological target: T4, Purine nucleoside phosphorylase (Homo sapiens, UniProt P00491); experiment: Inhibition of human PNP
T4 sequence (P00491 whole entry): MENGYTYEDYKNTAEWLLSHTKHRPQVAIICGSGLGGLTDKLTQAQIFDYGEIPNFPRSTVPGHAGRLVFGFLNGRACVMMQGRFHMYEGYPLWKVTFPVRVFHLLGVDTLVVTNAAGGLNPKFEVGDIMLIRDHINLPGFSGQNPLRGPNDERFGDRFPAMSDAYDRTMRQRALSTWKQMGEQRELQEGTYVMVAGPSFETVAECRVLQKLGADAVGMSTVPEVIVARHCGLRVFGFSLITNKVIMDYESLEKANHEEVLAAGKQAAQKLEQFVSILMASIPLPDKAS

[6] = biological target: T5, Purine nucleoside phosphorylase (Bos taurus, UniProt P55859); experiment: Inhibition of bovine PNP
T5 sequence (P55859 whole entry): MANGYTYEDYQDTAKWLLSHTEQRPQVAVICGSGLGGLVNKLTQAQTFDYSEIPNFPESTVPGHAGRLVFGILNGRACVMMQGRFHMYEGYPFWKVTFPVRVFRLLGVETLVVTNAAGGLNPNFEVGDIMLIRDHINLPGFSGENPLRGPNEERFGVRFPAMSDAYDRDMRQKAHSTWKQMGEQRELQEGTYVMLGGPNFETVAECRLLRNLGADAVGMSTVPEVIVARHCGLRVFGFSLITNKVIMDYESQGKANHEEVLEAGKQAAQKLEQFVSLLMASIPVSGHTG

Chain of 5'-methylthioadenosine/S-adenosylhomocysteine nucleosidase (Escherichia coli O157:H7, UniProt P0AF14) (P0AF14 whole entry): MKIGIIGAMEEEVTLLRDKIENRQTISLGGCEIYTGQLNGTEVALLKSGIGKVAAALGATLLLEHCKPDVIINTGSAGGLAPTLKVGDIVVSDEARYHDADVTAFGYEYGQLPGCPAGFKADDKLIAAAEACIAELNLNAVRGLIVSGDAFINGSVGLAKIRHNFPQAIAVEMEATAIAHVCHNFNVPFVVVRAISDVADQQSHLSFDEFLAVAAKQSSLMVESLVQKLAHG

## O=c1[nH]cnc2c(CN3CC(CO)C3)c[nH]c12
[1]
  Ki: > 10000 nM

## CSC[C@H]1CN(Cc2c[nH]c3c(N)ncnc23)C[C@@H]1O
[2]
  Ki: 24 nM
[3]
  Ki: 0.002 nM
[4]
  Ki: 0.09 nM

## CSCC1CN(Cc2c[nH]c3c(N)ncnc23)C1
[2]
  Ki: 84 nM
[3]
  Ki: 0.45 nM

## O=c1[nH]cnc2c(CN3C(CO)CC3CO)c[nH]c12 (stereo not drawn)
[5]
  Ki: 12.9 nM
[1]
  Ki: 1290 nM
[6]
  Ki: 16 nM

## CSCC1(CO)CN(Cc2c[nH]c3c(N)ncnc23)C1
[2]
  Ki: 150 nM
[3]
  Ki: 0.84 nM

## O=c1[nH]cnc2c(CN3CC(CO)(CO)C3)c[nH]c12
[1]
  Ki: > 10000 nM

## O=c1[nH]cnc2c(CN3[C@@H](CO)C[C@@H]3CO)c[nH]c12 (racemic)
[5]
  Ki: 280 nM
[1]
  Ki: 580 nM
[6]
  Ki: 360 nM

## O=c1[nH]cnc2c(CN3C[C@H](CO)[C@@H](O)C3)c[nH]c12 [ULODESINE]
[5]
  Ki: 0.0107 nM
[1]
  Ki: 0.5 nM
[6]
  Ki: 0.1 nM
